Source: patent publication US20070259962A1, “Use of N-Arylhydrazine Derivatives for Combating Pests in and on Animals” (priority 2003, published 2007)

Legend:
Culex quinquefasciatus [1] = experiment: contact activity via water treatment, southern house mosquito larvae; conditions: house mosquito larvae (4th-instars), rate 10 ppm
Method: (§1) 2. Screening method to test contact activity against yellowfever mosquito, southern house mosquito, and malaria mosquito larvae via water treatment
(§2) Well plates were used as test arenas. The active ingredient was dissolved in acetone and diluted with water to obtain the concentrations needed. The final solutions containing appr. 1% acetone were placed into each well. Approximately 10 mosquito larvae (4th-instars) in 1 ml water were added to each well. Larvae were fed one drop of liver powder each day. The dishes were covered and maintained at 22° C. Mortality was recorded daily and dead larvae and live or dead pupae were removed daily. At the end of the test remaining live larvae were recorded and percent mortality was calculated.
(§3) Each test was replicated at least 3 times.

Aedes aegypti [2] = experiment: contact activity via water treatment, yellowfever mosquito larvae; conditions: yellowfever mosquito larvae (4th-instars), rate 10 ppm
Method: as §1, §2, §3

Ctenocephalides felis = experiment: contact activity via glass contact, cat flea; conditions: rate 100 ppm
Method: (§4) 1. Screening method to test contact activity against stable fly, yellowfever mosquito, house mosquito, malaria mosquito, cat flea, and brown dog tick via glass contact
(§5) Glass vials (20 ml scintillation vials) were treated with 0.5 ml of a solution of active ingredient in acetone. Each vial was rolled uncapped for ca. 10 minutes to allow the a.i. to completely coat the vial and to allow for full drying of the acetone. Insects or ticks were placed into each vial.
as §3

Culex quinquefasciatus [3] = experiment: contact activity via glass contact, house mosquito; conditions: rate 0.5 ppm
Method: as §4, §5, §3

Anopheles albimanus [4] = experiment: contact activity via water treatment, malaria mosquito larvae; conditions: malaria mosquito larvae (4th-instars), rate 1.0 ppm
Method: as §1, §2, §3

Stomoxys calcitrans = experiment: contact activity via glass contact, stable fly; conditions: rate 10 ppm
Method: as §4, §5, §3

Anopheles albimanus [5] = experiment: contact activity via glass contact, malaria mosquito; conditions: rate 1 ppm
Method: as §4, §5, §3

Aedes aegypti [6] = experiment: contact activity via glass contact, yellowfever mosquito; conditions: rate 10 ppm
Method: as §4, §5, §3

| Structure (SMILES) | Days or Hours to achieve 100% mortality (Culex quinquefasciatus [1]) [days] | Days or Hours to achieve 100% mortality (Aedes aegypti [2]) [days] | Days or Hours to achieve 100% mortality (Ctenocephalides felis) [days] | Days or Hours to achieve 100% mortality (Culex quinquefasciatus [3]) [h] | Days or Hours to achieve 100% mortality (Anopheles albimanus [4]) [days] | Days or Hours to achieve 100% mortality (Stomoxys calcitrans) [h] | Days or Hours to achieve 100% mortality (Anopheles albimanus [5]) [days] | Days or Hours to achieve 100% mortality (Aedes aegypti [6]) [h] |
| --- | --- | --- | --- | --- | --- | --- | --- | --- |
| CCN/C(=N\Nc1c(Cl)cc(C(F)(F)F)cc1Cl)C1(C)CC1(Cl)Cl (stereo not drawn) [1-2, N-Ethyl-2,2-dichloro-1-methylcyclopropane-carboxamide-2-(2,6-dichloro-α,α,α-trifluoro-p-tolyl)hydrazone] | 1 | 2 | 2 | 4 | 1 | 4 | 1 | 4 |
| CCN/C(=N\Nc1c(Cl)cc(C(F)(F)F)cc1Cl)C(C)(C)C [I-1, N-ethyl-2,2-dimethylpropionamide-2-(2,6-dichloro-α,α,α-trifluoro-p-tolyl)-hydrazone] | 1 | 2 | 2 | 4 | 1 | 4 | 1 | 4 |
